Experimental data published in patent US9095599B2, “O-(substituted benzyl) phosphoramidate compounds and therapeutic use” (Nanjing Molecular Research, Inc., priority 2011, dated 2015).
pEC50: −log10 of the molar value. Entries after “also recorded” stand apart in the source; their conditions may differ.

What was measured:
[1] = Rat plasma and liver PK after iv administration; assay type: in vivo, SD rats
Description: Pharmacokinetic (PK) study of prodrug FDURP (DGX-102) and parent drug (FDUR) in rats was completed according to following procedure.
SD rats (250-300 g, male, N=15) were used for each compound, purchased from SLAC Laboratory Animal Co. LTD Qualification No.: SCXK (SH) 2007-0005, 13264. Compounds FDUR and FDURP were each dosed via tail vein injection. The animal was restrained manually at designated time points. Approximately 500 μL of blood/time point was collected into K2EDTA tube via cardiac puncture for terminal bleeding under anesthesia with Isoflurane. FDUR and FDURP blood samples were put on ice after collection and then centrifuged to obtain plasma sample (2000 g, 5 min, 4° C.) within 15 minutes of sampling. The blood samples were then centrifuged to obtain plasma sample (2000 g, 5 min, 4° C.). All the plasma samples were immediately quenched for protein precipitation. Liver samples of each compound were removed at designated time points by first sacrificing the animal by CO2 inhalation, then perfusing the liver with ice cold saline and removing the left middle liver lobe, which was then snap frozen in dry ice. Liver samples were stored at approximately −80° C. until analysis. The liver homogenate was then processed for further analysis by LC/MS-MS. Plasma and liver samples were stored at approximately −80° C. until analysis.
Concentrations of prodrugs, parent drug and possible metabolites in both plasma and liver including FDURMP, FDUR, FDUR-MP and 5FU were determined by LC/MS-MS.

[2] = tested on: HCV subgenomic replicon (genotype 1a) in Huh-7 cells; assay: HCV replicon assay (luciferase reporter); assay type: cell-based; details: for pEC50: Hepatitis C virus, subgenomic genotype 1a replicon, Huh-7 luc-ubi-neo, 48 h, diastereomer mixtures
Description: Anti-HCV activity and cytotoxicity of compounds disclosed herein were assayed following patent method (WO 2007/027248).
(§1) The anti-HCV activity and toxicity of the exemplary compounds can be tested in two biological assays—a cell-based HCV replicon assay and cytotoxicity assay (WO 2007/027248).
A human hepatoma cell line (Huh-7) containing replicating HCV subgenomic replicon with a luciferase reporter gene (luc-ubi-neo) was used to evaluate anti-HCV activity of the compounds. In this assay, level of luciferase signal correlates with the viral RNA replication directly. The HCV replicon-reporter cell line (NK/luc-ubi-neo) was cultured in DMEM medium supplemented with 10% fetal bovine serum and 0.5 mg/ml Geneticin (G418). Cells were maintained in a subconfluent state to ensure high levels of HCV replicon RNA synthesis.
To evaluate the antiviral activity of compounds, serial dilutions were prepared with concentrations ranging from 0.14 to 300 μM. Diluted compounds were transferred to a 96-well plate followed by the addition of replicon cells (6000 cells per well). Cells were incubated with the compounds for 48 h after which luciferase activity was measured. Reduction of luciferase signal reflected the decrease of HCV replicon RNA in the treated cells and used to determine the EC50 value (concentration which yielded a 50% reduction in luciferase activity).
(§2) The biological activities using subgenomic genotype 1a replicon and cytotoxicity of the selected compounds are summarized in Table 2.

[3] = Cytotoxicity assay (LTR-luc luciferase reporter); assay type: cell-based; details: human; Huh-7 LTR-luc cells
Source text: as §1
A Huh-7 cell line carrying a luciferase reporter gene (driven by a HIV LTR promoter) stably integrated into the chromosome was used to analyze the cytotoxic effect of the selected compounds. This cell line (LTR-luc) was maintained in DMEM medium with 10% FBS. Design of the cytotoxicity assay was similar to that of the HCV replicon assay. Reduction of luciferase activity in the treated cells correlated with the cytotoxic effect of the test compound and was used to calculate the CC50 value (concentration that inhibited cell growth by 50%).
as §2

For Cc1ccccc1COP(=O)(NCc1ccccc1)OCC1OC(n2cc(F)c(=O)[nH]c2=O)CC1O (centres unmarked) [FDURP], the “Active metabolite FDUR-MP in the liver after administration” value ([1]; iv) was “detected in the liver”, the “Concentrations of related active drugs (FDUR, FDUR-MP, 5FU) compared with administration of FDUR” value ([1]; iv) was “significantly increased” and the “Exposure in plasma and liver compared with parent drug FDUR” value ([1]; iv) was “significantly greater”. The Tmax ([1]; male, Sprague-Dawley, liver, 0.015 mmol/kg, monitored compound FDURP, iv) was 60 min, the AUC(0-inf) ([1]; male, Sprague-Dawley, plasma, 0.015 mmol/kg, monitored compound FDURP, iv) was 10400 ng·h/mL and the half-life ([1]; male, Sprague-Dawley, plasma, 0.015 mmol/kg, monitored compound FDURP, iv, printed in Tmax column, read-out: plasma T½ (converted)) was 27 min. For the same molecule, the “liver AUC(inf)” value ([1]; monitored compound FDURP, iv) was 1750 ng·h/mL, the “liver Cmax” value ([1]; monitored compound FDURP, iv) was 1573 ng/mL and the “Drug FDUR Concentration, Liver” value ([1]; sampling 1, iv 0.015 mmol/kg) was “BQL”. For the same molecule, the “Drug FDUR Concentration, Liver” value ([1]; sampling 2, iv 0.015 mmol/kg) was “BQL”, the “Drug FDUR Concentration, Plasma” value ([1]; sampling 4, iv 0.015 mmol/kg) was “BQL” and the “Drug FDUR Concentration, Plasma” value ([1]; sampling 8, iv 0.015 mmol/kg) was “BQL”. The “Drug FDUR Concentration, Plasma” value ([1]; sampling 24, iv 0.015 mmol/kg) was “BQL”.
For CC1(F)C(O)C(COP(=O)(NCc2ccccc2)OCc2ccccc2)OC1n1ccc(=O)[nH]c1=O (centres unmarked) [DGX-106], the “anti-HCV activity (in words)” value [2] was “did not show any anti-HCV activity”, the pEC50 [2] was less than 4.00 and the CC50 [3] was greater than 100 µM.
With Cc1ccccc1COP(=O)(NCc1ccccc1)OCC1OC(n2ccc(=O)[nH]c2=O)C(C)(F)C1O (centres unmarked) [DGX-105] the “anti-HCV activity (in words)” value [2] was “biologically potent; also recorded: potent anti-HCV activity”, the pEC50 [2] was 5.72 and the CC50 [3] was greater than 100 µM.
In the case of COc1nc(N)nc2c1ncn2C1OC(COP(=O)(NCc2ccccc2)OCc2ccccc2C)C(O)C1(C)O (centres unmarked) [DGX-111], the “anti-HCV activity (in words)” value [2] was “biologically much more potent”, the pEC50 [2] was 6.52 and the CC50 [3] was 69 µM.
In the case of CC1(F)C(O)C(CO)OC1n1ccc(=O)[nH]c1=O (centres unmarked) [DGX-103], the “anti-HCV activity (in words)” value [2] was “biologically inactive”, the pEC50 [2] was less than 4.00 and the CC50 [3] was greater than 100 µM.
For COc1nc(N)nc2c1ncn2C1OC(CO)C(O)C1(C)O (centres unmarked) [DGX-110], the “anti-HCV activity (in words)” value [2] was “biologically active”, the pEC50 [2] was 6.05 and the CC50 [3] was greater than 100 µM.
With O=c1[nH]c(=O)n([C@H]2C[C@H](O)[C@@H](CO)O2)cc1F [FDUR, 5-fluoro-2′-deoxyuridine, reference compound] the “Active metabolite FDUR-MP in the liver after administration” value ([1]; iv) was “not”, the “liver Cmax” value ([1]; monitored compound 5FU, iv) was “BQL” and the “liver Cmax” value ([1]; monitored compound FDUR, iv) was “BQL”. For the same molecule, the “liver Cmax” value ([1]; monitored compound FDUR-MP, iv) was “BQL”, the “Drug FDUR Concentration, Liver” value ([1]; sampling 1, iv 0.015 mmol/kg) was “BQL” and the “Drug FDUR Concentration, Liver” value ([1]; sampling 2, iv 0.015 mmol/kg) was “BQL”. For the same molecule, the “Drug FDUR Concentration, Plasma” value ([1]; sampling 2, iv 0.015 mmol/kg) was “BQL”, the “Drug FDUR Concentration, Liver” value ([1]; sampling 4, iv 0.015 mmol/kg) was “BQL” and the “Drug FDUR Concentration, Plasma” value ([1]; sampling 4, iv 0.015 mmol/kg) was “BQL”. For the same molecule, the “Drug FDUR Concentration, Liver” value ([1]; sampling 8, iv 0.015 mmol/kg) was “BQL”, the “Drug FDUR Concentration, Plasma” value ([1]; sampling 8, iv 0.015 mmol/kg) was “BQL” and the “Drug FDUR Concentration, Liver” value ([1]; sampling 24, iv 0.015 mmol/kg) was “BQL”. The “Drug FDUR Concentration, Plasma” value ([1]; sampling 24, iv 0.015 mmol/kg) was “BQL”.
For COc1ccc(COP(=O)(NCc2ccccc2)OCC2OC(n3ccc(=O)[nH]c3=O)C(C)(F)C2O)cc1F (centres unmarked) [DGX-104], the “anti-HCV activity (in words)” value [2] was “biologically potent; also recorded: potent anti-HCV activity”, the pEC50 [2] was 5.39 and the CC50 [3] was greater than 100 µM.
